Laboratory results reported in PubChem BioAssay AID1963826 (Molecular Pharmacology Branch, DTP, NCI, 2024).

Tested on: 926638-142-R-J1-PDC complex spheroid viability
Experiment: Anticancer human tumor 926638-142-R-J1-PDC patient-derived endometrial carcinoma cell line growth inhibition [POLQ]
Conditions: for IC50: curve of first compound; for viability, T/C: stronger effect = lower value
In short: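 Patient-derived tumour cells were co-cultured with HUVEC and mesenchymal stem cells as multicellular spheroids at 37 °C. They were treated with POLQ inhibitors (novobiocin, ART-558, RP6685) alone or combined with other agents. Top concentrations were at or near clinical Cmax (otherwise 10 microM; SN-38 at 1 microM), decreasing in half-log steps.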

[1] = second compound 0.0316 µM, first compound 0.0316 µM
[2] = second compound 0.0316 µM, first compound 0.1 µM
[3] = second compound 0.0316 µM, first compound 0.316 µM
[4] = second compound 0.0316 µM, first compound 1 µM
[5] = second compound 0.0316 µM, first compound 3.16 µM
[6] = second compound 0.0316 µM, first compound 10 µM
[7] = second compound 0.1 µM, first compound 0.0316 µM
[8] = second compound 0.1 µM, first compound 0.1 µM
[9] = second compound 0.1 µM, first compound 0.316 µM
[10] = second compound 0.1 µM, first compound 1 µM
[11] = second compound 0.1 µM, first compound 3.16 µM
[12] = second compound 0.1 µM, first compound 10 µM
[13] = second compound 0.316 µM, first compound 0.0316 µM
[14] = second compound 0.316 µM, first compound 0.1 µM
[15] = second compound 0.316 µM, first compound 0.316 µM
[16] = second compound 0.316 µM, first compound 1 µM
[17] = second compound 0.316 µM, first compound 3.16 µM
[18] = second compound 0.316 µM, first compound 10 µM
[19] = second compound 1 µM, first compound 0.0316 µM
[20] = second compound 1 µM, first compound 0.1 µM
[21] = second compound 1 µM, first compound 0.316 µM
[22] = second compound 1 µM, first compound 1 µM
[23] = second compound 1 µM, first compound 3.16 µM
[24] = second compound 1 µM, first compound 10 µM
[25] = second compound 3.16 µM, first compound 0.0316 µM
[26] = second compound 3.16 µM, first compound 0.1 µM
[27] = second compound 3.16 µM, first compound 0.316 µM
[28] = second compound 3.16 µM, first compound 1 µM
[29] = second compound 3.16 µM, first compound 3.16 µM
[30] = second compound 3.16 µM, first compound 10 µM
[31] = second compound 10 µM, first compound 0.0316 µM
[32] = second compound 10 µM, first compound 0.1 µM
[33] = second compound 10 µM, first compound 0.316 µM
[34] = second compound 10 µM, first compound 1 µM
[35] = second compound 10 µM, first compound 3.16 µM
[36] = second compound 10 µM, first compound 10 µM
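Further: spheroids exposed to drugs for one week before readout.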
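Wherever viability, T/C is given: percent viability relative to DMSO vehicle control wells set as 100%.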

CC1COCCN1c1cc(C2(O)CC3CCC(C2)O3)c2cnn(-c3ccn[nH]3)c2n1 (centres undefined) + Nc1ccc(C#CCN(C(=O)Cc2ncc(C(F)(F)F)cc2C(F)(F)F)c2ccc(F)cc2)nn1
IC50 (second compound 0.0316 µM): 197 nM
IC50 (second compound 0.1 µM): 200 nM
IC50 (second compound 0.316 µM): 191 nM
IC50 (second compound 1 µM): 199 nM
IC50 (second compound 3.16 µM): 198 nM
IC50 (second compound 10 µM): 186 nM
viability, T/C [1]: 96.6%
viability, T/C [2]: 66.5%
viability, T/C [3]: 40.1%
viability, T/C [4]: 14.8%
viability, T/C [5]: 8.94%
viability, T/C [6]: 4.04%
viability, T/C [7]: 105%
viability, T/C [8]: 69.9%
viability, T/C [9]: 36.8%
viability, T/C [10]: 16.9%
viability, T/C [11]: 10.6%
viability, T/C [12]: 4.15%
viability, T/C [13]: 102%
viability, T/C [14]: 68.9%
viability, T/C [15]: 33.4%
viability, T/C [16]: 19.8%
viability, T/C [17]: 9.43%
viability, T/C [18]: 3.41%
viability, T/C [19]: 88.3%
viability, T/C [20]: 71%
viability, T/C [21]: 35.8%
viability, T/C [22]: 14%
viability, T/C [23]: 9.22%
viability, T/C [24]: 3.83%
viability, T/C [25]: 82.5%
viability, T/C [26]: 69%
viability, T/C [27]: 36.6%
viability, T/C [28]: 15.3%
viability, T/C [29]: 8.76%
viability, T/C [30]: 3.76%
viability, T/C [31]: 73.6%
viability, T/C [32]: 75.1%
viability, T/C [33]: 29.3%
viability, T/C [34]: 15.8%
viability, T/C [35]: 10.8%
viability, T/C [36]: 3.69%

CCc1cc2c(N3CCc4c(cc(Cn5ccnc5)cc4-c4cn(C)nc4C(F)(F)F)C3=O)ccnc2c(OC)n1 + COC1C(OC(N)=O)C(O)C(Oc2ccc3c(O)c(NC(=O)c4ccc(O)c(CC=C(C)C)c4)c(=O)oc3c2C)OC1(C)C
IC50 (second compound 0.0316 µM): 242 nM
IC50 (second compound 0.1 µM): 382 nM
IC50 (second compound 0.316 µM): 332 nM
IC50 (second compound 1 µM): 258 nM
IC50 (second compound 3.16 µM): 225 nM
IC50 (second compound 10 µM): 299 nM
viability, T/C [1]: 81.8%
viability, T/C [2]: 60.3%
viability, T/C [3]: 46.7%
viability, T/C [4]: 38.5%
viability, T/C [5]: 28%
viability, T/C [6]: 25.9%
viability, T/C [7]: 81.9%
viability, T/C [8]: 63.8%
viability, T/C [9]: 54.2%
viability, T/C [10]: 40.9%
viability, T/C [11]: 25.8%
viability, T/C [12]: 22.7%
viability, T/C [13]: 77.7%
viability, T/C [14]: 57.7%
viability, T/C [15]: 52.6%
viability, T/C [16]: 43%
viability, T/C [17]: 28.6%
viability, T/C [18]: 26.6%
viability, T/C [19]: 91.7%
viability, T/C [20]: 60.2%
viability, T/C [21]: 46.5%
viability, T/C [22]: 45%
viability, T/C [23]: 22.5%
viability, T/C [24]: 26.1%
viability, T/C [25]: 85.2%
viability, T/C [26]: 54.2%
viability, T/C [27]: 48.5%
viability, T/C [28]: 38.5%
viability, T/C [29]: 28.1%
viability, T/C [30]: 21.1%
viability, T/C [31]: 79.1%
viability, T/C [32]: 64.5%
viability, T/C [33]: 47%
viability, T/C [34]: 40.1%
viability, T/C [35]: 32%
viability, T/C [36]: 25.9%
